A short description of the data set: Period 2 human ADME study: whole blood PK after oral solution [14C]-mobocertinib. Format: in vivo. Here is the method: This was a two-period, open-label, single-dose phase 1 study (NCT03811834) conducted at one clinical site (Celerion, Lincoln, Nebraska, USA) in healthy male participants. The primary objective of Period 1 was to determine the absolute bioavailability of mobocertinib following a single oral dose of 160 mg mobocertinib as capsules and a single intravenous (IV) microdose of 50 µg (~ 2 µCi) [^14C]-mobocertinib. The primary objectives of Period 2 were to (1) assess the cumulative excretion of total radioactivity in urine and feces (mass balance); (2) assess the metabolite profile of mobocertinib in plasma, urine, and feces; and (3) characterize the PK of mobocertinib, AP32960, and AP32914 in plasma, whole blood, and urine, and total radioactivity concentration equivalents in plasma and whole blood following a single oral dose of 160 mg (~ 100 µCi) [^14C]-mobocertinib as an oral solution. A sample size of 6 healthy males was selected without statistical considerations and deemed adequate to meet the study objectives. Furthermore, the sample size was limited based on clinical considerations for human ADME studies and to limit exposure to radioactivity.
After a washout of 8–9 days, participants returned to the clinic for Day − 1 of Period 2. On Day 1 of Period 2, after a fast of ≥ 10 h, participants received a single nominal dose of 160 mg (~ 100 µCi; whole body effective dose of 5.3 mrem for a 70-kg human) [^14C]-mobocertinib as a 70 mL oral solution. The actual doses administered ranged from 161 to 163 mg (92.4 to 93.9 µCi). Participants stayed in the clinic from Day − 1 until a discharge criterion (≥ 80% of the total administered radioactive dose was recovered in urine and feces or excretion of radioactivity in urine and feces combined had declined to ≤ 1% of the total administered dose per day for ≥ 2 consecutive intervals) was met, or up to 10 days postdose. To measure the total radioactivity and concentrations of mobocertinib, AP32960, and AP32914 in whole blood and plasma, 4 blood samples were collected predose, and at 0.5, 1, 2, 3, 4, 5, 6, 8, 12, 24, 36, 48, 72, 96, 120, 144, 168, 192, 216, and 240 h postdose; a fifth blood sample was collected for plasma metabolite profiling at predose and 1, 2, 4, 6, 12, 24, 48, 72, 96, 120, and 168 h postdose. Feces and urine were collected predose (feces within 48 h and urine within 24 h prior to dosing), 0–24 h (urine from 0–12 and 12–24 h), and then at 24-hour intervals up to 240 h postdose or until a discharge criterion was met. […] These 2 participants continued with at-home fecal sample collections. One participant provided fecal samples until Day 13 (264–288 h interval) and one participant provided fecal samples until Day 19 (408–432 h interval), after which they met a discharge criterion.
Plasma, whole blood, and urine samples were assayed for mobocertinib, AP32960, and AP32914 concentrations using liquid chromatography-tandem mass spectrometry (Q2 Solutions, Ithaca, New York, USA). The analytical range for each analyte was 0.250 to 500 ng/mL in whole blood and plasma, and 1.00 to 1000 ng/mL in urine. […] Urine and fecal samples were assayed for total radioactivity following the IV dose of [^14C]-mobocertinib in Period 1, and whole blood, plasma, urine, and fecal samples were assayed for total radioactivity following the oral dose of [^14C]-mobocertinib in Period 2 using liquid scintillation counting (LSC; Celerion, Lincoln, Nebraska, USA; LLOQs: Period 1 urine: 0.115–0.118 ng eq/g, feces: 0.720–0.759 ng eq/g; Period 2 whole blood: 87.3–112 ng eq/g, plasma: 116–132 ng eq/mL, urine: 37.8–46.8 ng eq/g, feces: 110–336 ng eq/g across participants). Urine and fecal samples collected in Period 1 that had total radioactivity concentration equivalents below the LLOQ of the Celerion LSC assay were sent to Pharmaron for measurement by AMS (LLOQ: urine: 0.0000253–0.00111 ng eq/g; feces: 0.000404–0.0278 ng eq/g across participants). The LSC and AMS assays were not cross-validated. […]

Setting [1] is: Period 2, oral solution 160 mg [14C]-mobocertinib, whole blood, geometric mean (geometric CV%).
The mark [2] stands for this setting: Period 2, oral solution 160 mg [14C]-mobocertinib, blood-to-plasma, geometric mean (geometric CV%).
Setting [3] is: male, human, Period 2, oral solution 160 mg [14C]-mobocertinib, whole blood, geometric mean (geometric CV%).

One may read the AUC(0-inf) as total exposure, with the tail of the curve extrapolated. Higher therefore signals more exposure. The term AUC(0-t) denotes the area under the concentration-time curve up to a stated or last time point. The term Cmax denotes the highest concentration seen after dosing.

As for `C=CC(=O)Nc1cc(Nc2ncc(C(=O)OC(C)C)c(-c3cn(C)c4ccccc34)n2)c(OC)cc1N(C)CCN(C)C` [Mobocertinib], where the note is “Period 2, oral solution 160 mg [14C]-mobocertinib”, the “geometric mean AUC∞ lower in whole blood compared to plasma” value worked out at 24%. Moreover, under setting [1], the CL/F is 222 (32.6) L/h, the “Molar AUC∞ ratio (analyte vs. total radioactivity)” value is reported as 0.00224 (28.3) and the t1/2z is 20.5 (25.4) h. Under setting [2], the “B:P Ratio AUC∞” value is 0.763 (17.7) and the “B:P Ratio Cmax” value is given as 0.794 (17.1). The tmax (Period 2, single oral solution 160 mg (~100 µCi) [14C]-mobocertinib, whole blood, median (range)) was 5.0 (2.0–6.0) h. For the same compound, the blood plasma ratio (male, human, whole blood and plasma, Period 2, oral solution 160 mg [14C]-mobocertinib, range over time, read-out: arithmetic mean blood-to-plasma (B:P) concentration ratios) was in the range of 0.6 to 1.04. Besides, under setting [3], the AUC(0-inf) stood at 729 ng·h/mL, the area under the curve AUC(0-t) is 718 ng·h/mL and the Cmax was 40.5 ng/mL. Besides, the Vd/F (male, human, Period 2, oral solution 160 mg [14C]-mobocertinib, whole blood, geometric mean (geometric CV%), read-out: Vz/F) came out at 6550 L.

For the origin of these results see article PMC11327196, “A phase 1 study to assess the absolute bioavailability, mass balance, pharmacokinetics, metabolism, and excretion of [^14C]-mobocertinib, an oral inhibitor of EGFR exon 20 insertion mutations, in healthy participants” (Investigational New Drugs, 2024).
